Data published in patent US20250368648A1, “MULTI-CYCLIC IRAK AND FLT3 INHIBITING COMPOUNDS AND USES THEREOF” (CHILDREN'S HOSPITAL MEDICAL CENTER, priority 2022, published 2025).
Substitutions are numbered along the chain they refer to. pKd: −log10 of the molar value.

How the values were obtained:
FLT3 D835H = molecular target: T1, FLT3 D835H (Homo sapiens, UniProt P36888, D835H); assay: DiscoverX KINOMEscan competition binding, FLT3 D835H; settings: no ATP
T1 construct: purchased DiscoverX (KINOMEscan); host or cells: E. coli (T7 phage) or HEK-293
T1 sequence (P36888 27-993 D835H): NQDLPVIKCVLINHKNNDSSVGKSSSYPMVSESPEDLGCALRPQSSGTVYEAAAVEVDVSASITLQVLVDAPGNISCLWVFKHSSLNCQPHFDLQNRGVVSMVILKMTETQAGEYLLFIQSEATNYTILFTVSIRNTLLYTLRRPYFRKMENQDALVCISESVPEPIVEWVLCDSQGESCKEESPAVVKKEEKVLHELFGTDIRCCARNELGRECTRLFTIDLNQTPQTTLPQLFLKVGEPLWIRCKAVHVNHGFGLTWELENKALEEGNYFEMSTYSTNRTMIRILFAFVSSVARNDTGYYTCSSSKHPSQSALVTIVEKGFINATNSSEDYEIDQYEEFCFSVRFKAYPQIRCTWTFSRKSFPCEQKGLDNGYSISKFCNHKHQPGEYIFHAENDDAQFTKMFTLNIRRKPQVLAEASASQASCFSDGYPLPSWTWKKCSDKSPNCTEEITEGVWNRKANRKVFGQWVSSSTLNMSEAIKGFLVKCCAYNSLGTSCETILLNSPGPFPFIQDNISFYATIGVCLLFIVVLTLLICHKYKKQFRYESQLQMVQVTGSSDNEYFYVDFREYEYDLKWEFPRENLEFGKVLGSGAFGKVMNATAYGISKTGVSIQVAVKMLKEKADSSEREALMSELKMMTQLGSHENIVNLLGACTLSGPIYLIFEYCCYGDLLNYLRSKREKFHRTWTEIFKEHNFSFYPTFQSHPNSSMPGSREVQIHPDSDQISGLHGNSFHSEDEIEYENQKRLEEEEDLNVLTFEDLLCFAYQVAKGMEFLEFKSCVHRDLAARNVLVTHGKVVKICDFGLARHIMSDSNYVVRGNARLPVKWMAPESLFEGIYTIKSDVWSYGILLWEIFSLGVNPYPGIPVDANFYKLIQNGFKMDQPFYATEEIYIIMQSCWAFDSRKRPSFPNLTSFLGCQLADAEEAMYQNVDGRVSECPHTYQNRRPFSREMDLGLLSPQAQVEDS
Excerpt: (§1) Kinase binding data were obtained for various exemplary compounds prepared according to Examples 2-15 using the DiscoverX KINOMEscan® active site-directed competition binding site-directed assay protocol described below. […] As a result, the data report thermodynamic interaction affinities (Kd values), rather than IC50 values that are dependent on ATP concentrations. The assay uses a DNA-tagged version of the protein kinase, and an immobilized ligand bound to a solid support. Compounds that directly or indirectly prevent kinase binding to the immobilized ligand reduce the amount of kinase captured on the solid support, which is detected using an ultra-sensitive qPCR method. Affinity constants reported from the assay have been reported to be independent of the immobilized ligand used that is coupled to the solid support (See supplemental information in Fabian, M. A. et. al., (2005) Nat. […] Wodicka, L. […] Biol. 17, 1241-1249.) Kinase-tagged T7 phage strains were prepared in an E. coli host derived from the BL21 strain. E. coli were grown to log-phase and infected with T7 phage and incubated with shaking at 32° C. until lysis. […] Kds were determined using an 11-point 3-fold compound dilution series with three DMSO control points. […] The kinase concentration in the eluates was measured by qPCR. Binding constants (Kds) were calculated with a standard dose-response curve using the Hill equation. […]

FLT3 N841I = molecular target: T2, FLT3 N841I (Homo sapiens, UniProt P36888, N841I); assay: DiscoverX KINOMEscan competition binding, FLT3 N841I; settings: no ATP
T2 construct: purchased DiscoverX (KINOMEscan); host or cells: E. coli (T7 phage) or HEK-293
T2 sequence (P36888 27-993 N841I): T1 sequence (P36888 27-993 D835H) with H809D, N815I
Excerpt: as §1

`COc1cc2ncc(-c3nc(N[C@H]4CNCC[C@@H]4F)c(F)cc3F)n2nc1C1CCC1` [Compound 15a, 6-(6-cyclobutyl-7-methoxyimidazo[1,2-b]pyridazin-3-yl)-3,5-difluoro-N-((3S,4S)-4-fluoropiperidin-3-yl)pyridin-2-amine] gave a pKd (FLT3 D835H) greater than 9.77 and a pKd (FLT3 N841I) of 9.60.
